From ChEMBL document CHEMBL1201862, “PubChem BioAssay data set” (2004)
Calls of active or inactive are those of the source.

Experiments:
Escherichia coli = assay: microbe, parasite or virus in culture
H4 = assay: Luminescence Cell-Based Dose Response HTS to Identify Activators of 5'UTR Stem-Loop Driven Prion Protein mRNA Translation in H4 Neuroglioblastoma Cells. [Related pubchem assays: 1829 (Project Summary), 1814 (Primary HTS)]; type: functional; details: Homo sapiens
[1] = Luminescence Cell-Based Dose Response HTS to Identify Activators of Luciferase Translation or Activity in H4 […] Cells. [Related pubchem assays: 1829 (Project Summary), 1814 (Primary HTS)]; type: functional
Vero [2] = assay: cells; type: functional, cell-based; details: Chlorocebus sabaeus
Vero [3] = assay: cells; type: functional; details: Chlorocebus sabaeus
[4] = viability of uninfected HEp-2 cells – cell-based, HTS, cytotoxicity control for RSV inhibitor project, dose response (AID 2410); type: functional; details: human respiratory syncytial virus
HEK293 = assay: cells; details: Homo sapiens;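 further: cells exposed to compound for 14 hours overnight before viability readout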
Tumor necrosis factor = Tumor necrosis factor (Homo sapiens, UniProt P01375); assay: analog potency on TNFa NF-kB signaling – cell-based, revised, SAR follow-up (AID 2337); type: functional
[5] = target: T1, Nucleotide-binding oligomerization domain-containing protein 1 (Homo sapiens, UniProt Q9Y239); assay: blockers of NOD1 pathway activity – revised, SAR follow-up (AID 2333); type: functional
T1 sequence (Q9Y239 whole entry): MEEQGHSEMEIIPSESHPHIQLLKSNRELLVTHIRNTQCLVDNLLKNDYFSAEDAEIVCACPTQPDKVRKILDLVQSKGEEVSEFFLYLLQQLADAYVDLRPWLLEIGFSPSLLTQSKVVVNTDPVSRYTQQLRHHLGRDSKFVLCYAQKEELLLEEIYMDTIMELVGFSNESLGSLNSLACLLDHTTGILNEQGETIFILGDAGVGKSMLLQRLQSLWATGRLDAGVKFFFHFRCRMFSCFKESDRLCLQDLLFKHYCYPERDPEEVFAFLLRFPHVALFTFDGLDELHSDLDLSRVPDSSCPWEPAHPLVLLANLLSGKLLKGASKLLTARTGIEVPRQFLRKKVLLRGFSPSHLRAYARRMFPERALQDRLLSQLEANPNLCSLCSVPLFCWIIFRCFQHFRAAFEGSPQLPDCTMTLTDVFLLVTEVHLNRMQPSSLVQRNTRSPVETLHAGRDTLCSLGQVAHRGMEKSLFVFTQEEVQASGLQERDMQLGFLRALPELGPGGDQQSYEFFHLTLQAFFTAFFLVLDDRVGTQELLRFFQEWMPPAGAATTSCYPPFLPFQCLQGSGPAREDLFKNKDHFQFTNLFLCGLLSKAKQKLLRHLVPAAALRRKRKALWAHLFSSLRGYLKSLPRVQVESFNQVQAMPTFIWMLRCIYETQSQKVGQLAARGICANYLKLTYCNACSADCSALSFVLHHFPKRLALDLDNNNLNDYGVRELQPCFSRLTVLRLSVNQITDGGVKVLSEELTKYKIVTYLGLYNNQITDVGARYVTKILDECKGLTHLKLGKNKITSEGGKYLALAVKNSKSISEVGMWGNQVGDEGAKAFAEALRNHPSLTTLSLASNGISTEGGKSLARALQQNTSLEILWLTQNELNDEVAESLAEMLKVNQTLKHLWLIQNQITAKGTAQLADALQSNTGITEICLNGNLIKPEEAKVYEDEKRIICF

Tumor necrosis factor, sequence (P01375 whole entry, the tested form may be a part): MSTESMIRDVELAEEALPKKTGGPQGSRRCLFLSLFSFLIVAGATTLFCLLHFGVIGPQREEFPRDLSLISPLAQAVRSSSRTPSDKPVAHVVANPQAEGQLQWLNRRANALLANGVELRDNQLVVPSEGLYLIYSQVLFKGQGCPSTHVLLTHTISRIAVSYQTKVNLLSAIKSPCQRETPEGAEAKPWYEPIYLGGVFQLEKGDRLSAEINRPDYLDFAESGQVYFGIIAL

Row | Structure (SMILES) | AC50 (Escherichia coli) | IC50 (Vero [2]) | CC50 (Vero [3]) | also measured
1 | CCCCn1c(N)c(N(CCOC)C(=O)COC(=O)C(C)Oc2ccc(Cl)cc2)c(=O)[nH]c1=O (configuration not stated) | 22 µM (active) | – | – | –
2 | Cc1cc(C(=O)NC2CCCc3c2cnn3-c2cccc(C)c2C)no1 (configuration not stated) | – | 1.53 µM (active) | – | EC50 (H4): > 120 µM (not active); EC50 [1]: > 120 µM (not active)
3 | Cc1nc(SC(C)C(=O)NCC2CCCO2)c2cc(-c3ccccc3)sc2n1 (configuration not stated) | – | 5.04 µM (active) | > 25 µM (active) | –
4 | CCOc1ccc(NC(=O)c2ccc(NC(=O)COC(=O)Cc3ccc(OC)cc3)cc2)cc1 | 21.4 µM (active) | – | – | –
5 | CCN(CC)C(=O)Oc1ccc2ccccc2c1Br | – | > 25 µM (active) | 22.7 µM (active) | CC50 [4]: 44.8 µM (active)
6 | CC(C)(C)C(=O)/N=C(\N)Nc1nc2ccccc2o1 | – | – | – | IC50 (HEK293): > 20 µM (inactive); IC50 (Tumor necrosis factor): 16.5 µM (active); IC50 [5]: > 20 µM (inactive)
7 | CCN(Cc1ccccc1)S(=O)(=O)c1c[nH]c(C(=O)OC)c1 | 80.5 µM (active) | – | – | –
8 | COc1ccccc1OC(=O)c1ccc(C)c(S(=O)(=O)N2CCOCC2)c1 | 23.7 µM (active) | – | – | –
9 | COc1ccc(C(=O)/C=C/c2cccnc2)c(OC)c1 | – | > 25 µM (active) | 14.9 µM (active) | –
